Each structure is given as a SMILES string.

In the first test the target is T1, 5-lipoxygenase (Rattus norvegicus, UniProt P12527).
T1 construct: An enzyme solution containing 5-lipoxygenase was prepared from cultured basophilic leukemia cell strain RBL-1 cells; endogenous in cells; host or cells: RBL-1 cells
T1 sequence (P12527 1-673): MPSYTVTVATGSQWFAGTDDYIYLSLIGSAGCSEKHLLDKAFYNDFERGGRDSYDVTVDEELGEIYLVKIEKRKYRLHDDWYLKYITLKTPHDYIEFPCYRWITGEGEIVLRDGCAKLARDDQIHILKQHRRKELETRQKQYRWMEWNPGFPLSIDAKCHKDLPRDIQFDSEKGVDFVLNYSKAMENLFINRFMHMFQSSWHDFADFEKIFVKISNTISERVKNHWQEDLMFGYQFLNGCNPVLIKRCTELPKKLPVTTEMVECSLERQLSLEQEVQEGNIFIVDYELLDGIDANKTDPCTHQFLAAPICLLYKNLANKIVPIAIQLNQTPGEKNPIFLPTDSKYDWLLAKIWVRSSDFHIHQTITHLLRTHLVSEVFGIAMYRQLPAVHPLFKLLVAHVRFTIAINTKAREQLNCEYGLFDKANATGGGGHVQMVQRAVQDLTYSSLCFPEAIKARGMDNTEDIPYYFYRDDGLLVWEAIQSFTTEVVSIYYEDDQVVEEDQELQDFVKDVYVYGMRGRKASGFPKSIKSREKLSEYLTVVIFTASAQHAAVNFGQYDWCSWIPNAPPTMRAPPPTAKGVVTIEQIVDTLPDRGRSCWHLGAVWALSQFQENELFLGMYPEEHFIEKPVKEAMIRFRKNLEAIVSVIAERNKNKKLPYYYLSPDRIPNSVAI
The test can be described thus: 5-Lipoxygenase inhibitory activity (5-HETE formation, enzyme solution from RBL-1 cells). It is filed as biochemical. Conditions: radiolabelled arachidonic acid substrate, indomethacin, calcium chloride, ATP; RBL-1 enzyme. As for the experimental part: An enzyme solution containing 5-lipoxygenase was prepared from cultured basophilic leukemia cell strain RBL-1 cells, and the reaction was carried out with radiolabelled arachidonic acid as the substrate in the presence of indomethacin, calcium chloride, adenosine triphosphate and the substance to be tested. A predetermined amount of the reaction mixture was spotted on a thin layer, separated by development, and then the radioactivity of the 5-HETE (5-hydroxyeicosatetraenic acid) fraction of the enzyme reaction product was measured to give the index of the 5-lipoxygenase activity. […] [Method of M. Furukawa et al. described in Biochimica et Biophysica acta, vol. 795, p. 458 (1984)]
The IC50 is the midpoint of a concentration-inhibition curve. For the compound `Cc1cc(NC(=O)CCc2cccs2)cc(C)c1O` [drawing 13], the IC50 was determined as 760 nM.
In the case of `COc1ccc(CCC(=O)Nc2cc(C)c(O)c(C)c2)cc1` [drawing 21], the IC50 amounted to 250 nM.
In the case of `COc1ccc(/C=C(\C)C(=O)Nc2cc(C(C)C)c(O)c(C(C)C)c2)cc1` [drawing 22], the 50% inhibitory concentration (IC50) amounted to 150 nM.
The same measure, in the same setting: then `CCCCCCCC(=O)Nc1cc(C)c(O)c(C)c1` [both CH3, (CH2)6 CH3], with 330 nM.
For `Cc1cc(NC(=O)/C=C/c2cccs2)cc(C)c1O` [drawing 11], the IC50 came to 200 nM.
On to `Cc1cc(NC(=O)c2cc3ccccc3s2)cc(C)c1O`, for which the IC50 worked out at 210 nM.
`COc1ccc(/C=C(\C)C(=O)Nc2cc(C)c(O)c(C)c2)cc1` [drawing 19]: the half-maximal inhibitory concentration (IC50) was determined as 150 nM.
`CC(=O)Oc1ccc(CCC(=O)Nc2cc(C)c(O)c(C)c2)cc1OC(C)=O` [drawing 20]: the 50% inhibitory concentration (IC50) turned out to be 200 nM.
As to `Cc1ccc(C(=O)Nc2cc(C)c(O)c(C)c2)s1` [drawing 8], the half-inhibitory concentration (IC50) came to 270 nM.
`Cc1cc(NC(=O)/C=C/c2cccn2C)cc(C)c1O`: the IC50 was 440 nM.
Turning to `CC=CC=CC(=O)Nc1cc(C)c(O)c(C)c1`, the concentration for half-maximal inhibition (IC50) amounted to 400 nM.
The same measure, in the same setting: the result for `CCCCCCCCC(=O)Nc1cc(C)c(O)c(C)c1` [both CH3, (CH2)7 CH3, 4-nonanoylamino-2,6-dimethylphenol] reads 400 nM.
For `Cc1cc(NC(=O)c2ccsc2)cc(C)c1O` [drawing 7], the half-maximal inhibitory concentration (IC50) amounted to 810 nM.
For `COc1cccc(/C=C/C(=O)Nc2cc(C)c(O)c(C)c2)c1` [drawing 16], the IC50 came out at 240 nM.
As for `COc1ccc(/C=C/C(=O)Nc2cc(C)c(O)c(C)c2)cc1` [drawing 17], the IC50 was 220 nM.
As to `CCCCCCC(=O)Nc1cc(C)c(O)c(C)c1` [both CH3, (CH2)5 CH3], the IC50 is 300 nM.
On the same count and under the same terms, then `CC(C)c1cc(NC(=O)c2cccs2)cc(C(C)C)c1O` [4-(2-thienylcarbonyl)-amino-2,6-diisopropylphenol], with 150 nM.

A further test concerns Leukotriene C4 formation. Kind of test: Leukotriene C4 formation inhibitory activity (sensitized guinea pig lung fragments). Type of test: cell-based. Conditions: Cavia porcellus; 10^-5 M; ovalbumin-sensitized guinea pig lung fragments, ovalbumin challenge in vitro, radioimmunoassay. The method, then:
Leukotriene C4 formation inhibitory activity
Lung fragments of guinea pig sensitized with ovalbumin were treated with the test compound and challenged with ovalbumin in vitro. After solvent extraction, leukotriene C4 in the supernatant was determined by radioimmunoassay. The leukotriene C4 formation inhibitory activity of the test compound is expressed as % inhibition at the sample concentration of 10^-5 M.
Usually inhibition stands for the share of the control response that was lost under treatment. Turning to `COc1ccc(CC(C)C(=O)Nc2cc(C)c(O)c(C)c2)cc1` (stereo not shown), the inhibition at 10 µM is 58.9%.
Turning to `COc1ccc(CCC(=O)Nc2cc(C)c(O)c(C)c2)cc1` [drawing 33], the inhibition at 10 µM was found to be 49.3%.
Same read-out and setting: then `Cc1ccc(C(=O)Nc2cc(C)c(O)c(C)c2)s1` [drawing 27], with 59%.
With `Cc1cc(NC(=O)c2cccs2)cc(C)c1O`, the inhibition at 10 µM was 76.6%.
As for `COc1cccc(CCC(=O)Nc2cc(C)c(O)c(C)c2)c1`, the inhibition at 10 µM came out at 66.9%.
Take `Cc1cc(NC(=O)c2ccsc2)cc(C)c1O` [drawing 25]: the inhibition at 10 µM was 62.9%.
On the same count and under the same terms, the result for `COc1cccc(/C=C/C(=O)Nc2cc(C)c(O)c(C)c2)c1` [drawing 35] reads 46%; that for `COc1ccc(/C=C(\C)C(=O)Nc2cc(C(C)(C)C)c(O)c(C(C)(C)C)c2)cc1`, 58.3%.
Turning to `COc1ccc(/C=C(\C)C(=O)Nc2cc(C)c(O)c(C)c2)cc1` [drawing 37], the inhibition at 10 µM was 58.1%.
Consider `Cc1cc(NC(=O)CCc2cccs2)cc(C)c1O` [drawing 28], for which the inhibition at 10 µM turned out to be 45.8%.
Turning to `Cc1cc(NC(=O)/C=C/c2cccs2)cc(C)c1O` [drawing 30], the inhibition at 10 µM came to 65%.
In the case of `CC(C)c1cc(NC(=O)c2cccs2)cc(C(C)C)c1O` [4-(2-thienylcarbonyl)-amino-2,6-diisopropylphenol], the inhibition at 10 µM stood at 79.9%.

A further test concerns Leukotriene B4 formation. The test can be described thus: Leukotriene B4 formation inhibitory activity (guinea pig neutrophil suspension). Conditions: Cavia porcellus, 10^-6 M, guinea pig neutrophils, calcium ionophore A23187 and arachidonic acid, HPLC. It is filed as cell-based. The method, then: Leukotriene B4 formation inhibitory activity
A neutrophil suspension, prepared by administration of casein intraperitoneally to guinea pig, was treated with the test compound and challenged with calcium ionophore A23187 and arachidonic acid. After solvent extraction, leukotriene B4 was assayed by high performance liquid chromatography. The leukotriene B4 formation inhibitory activity of the test compound is expressed as % inhibition at the sample concentration of 10^-6 M. [Method of Douglass et al. described in Prostaglandins vol. 31, p. 358 (1986)]
In the case of `CC(C)=CCC/C(C)=C\C(=O)Nc1cc(C)c(O)c(C)c1`, the inhibition at 1 µM worked out at 95.3%.
Regarding `COc1cccc(/C=C/C(=O)Nc2cc(C)c(O)c(C)c2)c1` [drawing 42], the inhibition at 1 µM amounted to 62.6%.
For the compound `CC(C)=CCC/C(C)=C/C(=O)Nc1cc(C)c(O)c(C)c1`, the inhibition at 1 µM was found to be 82.5%.
For the compound `COc1ccc(/C=C(\C)C(=O)Nc2cc(C(C)C)c(O)c(C(C)C)c2)cc1` [drawing 47], the inhibition at 1 µM came to 88.8%.
On to `CC(C)=CCC/C(C)=C/CC/C(C)=C/C(=O)Nc1cc(C)c(O)c(C)c1`, for which the inhibition at 1 µM amounted to 90.5%.
For `CCCCCCCC(=O)Nc1cc(CC)c(O)c(CC)c1` [both C2 H5, (CH2)6 CH3], the inhibition at 1 µM is 85.6%.
Turning to `CCCCCCCC(=O)Nc1cc(C)c(O)c(C)c1` [both CH3, (CH2)6 CH3], the inhibition at 1 µM amounted to 59.7%.
Consider `COc1ccc(/C=C/C(=O)Nc2cc(C)c(O)c(C)c2)cc1` [drawing 43], for which the inhibition at 1 µM came out at 65.6%.
As for `CC(C)=CCC/C(C)=C/CC/C(C)=C\C(=O)Nc1cc(C)c(O)c(C)c1`, the inhibition at 1 µM came out at 98.5%.
Regarding `CC(=O)Oc1ccc(/C=C/C(=O)Nc2cc(C)c(O)c(C)c2)cc1OC(C)=O`, the inhibition at 1 µM was 82%.
Regarding `CCCCCCCCC(=O)Nc1cc(C)c(O)c(C)c1` [both CH3, (CH2)7 CH3, 4-nonanoylamino-2,6-dimethylphenol], the inhibition at 1 µM stood at 57.3%.
Consider `CCCCCCCC(=O)Nc1cc(C(C)C)c(O)c(C(C)C)c1` [both CH(CH3)2, (CH2)6 CH3], for which the inhibition at 1 µM was 69.5%.
Turning to `CCCCCCC(=O)Nc1cc(C)c(O)c(C)c1` [both CH3, (CH2)5 CH3], the inhibition at 1 µM came out at 53.1%.
For `CC(=O)Oc1ccc(CCC(=O)Nc2cc(C)c(O)c(C)c2)cc1OC(C)=O` [drawing 45], the inhibition at 1 µM was 81.9%.

Another test deals with lipoxygenase.
Experiment: not given
Conditions: cited from earlier work.
For `Cc1cnc(Nc2ccc(O)c(C(C)(C)C)c2C(C)(C)C)s1` [4-[2-(5-methyl)thiazolylamino]-2,3-di-tert-butylphenol], the lipoxygenase inhibitory activity result is “lipoxygenase inhibitory activity”.
As to `CCCc1cc(F)c2oc(C(=O)OCc3ccccc3)c(C)c2c1O`, the lipoxygenase inhibitory activity entry is reported as “lipoxygenase inhibitory activity”.
For `CCCc1cc(F)c2oc(C(=O)OCC)c(C)c2c1O`, the lipoxygenase inhibitory activity result is recorded as “lipoxygenase inhibitory activity”.

In a further test the test system is PCA (passive cutaneous anaphylaxis).
Experiment: not given
Conditions: cited from earlier work.
For `COc1cc(C(=O)Nc2cc(Cl)c(O)c(Cl)c2)cc(OC)c1OC` [2,6-dichloro-4-(3,4,5-trimethoxybenzoyl)aminophenol], the “immune control activity or PCA inhibitory activity” value is recorded as “immune control activity or PCA (passive cutaneous anaphylaxis) inhibitory activity”.

System in the next test: not given
Experiment: not given
Conditions: stabilizer for polymers; cited from earlier work.
For the compound `CCCCCCCCCCCCCCCCCC(=O)Nc1cc(C(C)(C)C)c(O)c(C(C)(C)C)c1` [4-(stearoylamino)-2,6-di-tert-butylphenol], the antioxidant activity result is recorded as “antioxidant activity”.
As to `CCCCCCCCCCCC(=O)Nc1cc(CC)c(O)c(C(C)(C)C)c1` [4-(lauroylamino)-2-ethyl-6-tert-butylphenol], the antioxidant activity entry is given as “antioxidant activity”.

The record behind these values is US5047555A, “4-aminophenol derivatives and processes for preparing the same” (Tanabe Seiyaku Co., Ltd., priority 1988, dated 1991).
